{"source": "patent US20240165282A1", "about": "“CONFORMATIONAL CONSTRAINED SOMATOSTATIN RECEPTOR 3 PEPTIDE LIGANDS AND THEIR CONJUGATES AND USES THEREOF” (STARGET PHARMA LTD., priority 2021, published 2024)", "key": {"[1]": {"tested_on": "44 human cloned GPCRs and GPCR mediated cellular enzymatic activities", "assay": "Eurofins Cerep off-target safety pharmacology panel", "assay_type": "binding", "conditions": "1 micromolar", "procedure": "(§1) In this example, off-target interactions for SEQ ID NO.\n(§2) The assays were performed by Eurofins Cerep (Celle 1'Evescault, France). Compound binding was calculated as a % inhibition of the binding of a radioactively labeled ligand specific for each target. Compound enzyme inhibition effect was calculated as a % inhibition of control enzyme activity. In each experiment and if applicable, the respective reference compound was tested concurrently with SEQ ID NO. 3, and the data were compared with historical values determined at Eurofins. The experiment was accepted in accordance with Eurofins validation Standard Operating Procedure. Results showing an inhibition (or stimulation for assays run in basal conditions) higher than 50% are considered to represent significant effects of the test compounds.\nResults showing an inhibition (or stimulation) between 25% and 50% are indicative of weak to moderate effects (in most assays, they should be confirmed by further testing as they are within a range where more inter-experimental variability can occur). […]\nLow to moderate negative values have no real meaning and are attributable to variability of the signal around the control level. […] The results are expressed as a percent of control specific binding measured specific binding"}, "KV channel": {"tested_on": "KV channel", "assay": "Cerep off-target radioligand binding", "design": "species or system human", "conditions": "1 micromolar; antagonist radioligand", "procedure": "as §1, §2"}, "AR(h)": {"tested_on": "AR(h)", "assay": "Cerep off-target radioligand binding", "design": "species or system human", "conditions": "1 micromolar; agonist radioligand", "procedure": "as §1, §2"}, "[2]": {"tested_on": "Ca2+ channel (L, dihydropyridine site)", "assay": "Cerep off-target radioligand binding", "design": "species or system human", "conditions": "1 micromolar; antagonist radioligand", "procedure": "as §1, §2"}, "Na+ channel (site 2)": {"tested_on": "Na+ channel (site 2)", "assay": "Cerep off-target radioligand binding", "design": "species or system human", "conditions": "1 micromolar; antagonist radioligand", "procedure": "as §1, §2"}, "BZD (central)": {"tested_on": "BZD (central)", "assay": "Cerep off-target radioligand binding", "design": "species or system human", "conditions": "1 micromolar; agonist radioligand", "procedure": "as §1, §2"}, "NMDA": {"tested_on": "NMDA", "assay": "Cerep off-target radioligand binding", "design": "species or system human", "conditions": "1 micromolar; antagonist radioligand", "procedure": "as §1, §2"}, "MAO-A": {"molecular_target": "T1, MAO-A (Rattus norvegicus, UniProt P21396)", "T1 construct": "Eurofins Cerep (assay service)", "T1 sequence (P21396 whole entry)": "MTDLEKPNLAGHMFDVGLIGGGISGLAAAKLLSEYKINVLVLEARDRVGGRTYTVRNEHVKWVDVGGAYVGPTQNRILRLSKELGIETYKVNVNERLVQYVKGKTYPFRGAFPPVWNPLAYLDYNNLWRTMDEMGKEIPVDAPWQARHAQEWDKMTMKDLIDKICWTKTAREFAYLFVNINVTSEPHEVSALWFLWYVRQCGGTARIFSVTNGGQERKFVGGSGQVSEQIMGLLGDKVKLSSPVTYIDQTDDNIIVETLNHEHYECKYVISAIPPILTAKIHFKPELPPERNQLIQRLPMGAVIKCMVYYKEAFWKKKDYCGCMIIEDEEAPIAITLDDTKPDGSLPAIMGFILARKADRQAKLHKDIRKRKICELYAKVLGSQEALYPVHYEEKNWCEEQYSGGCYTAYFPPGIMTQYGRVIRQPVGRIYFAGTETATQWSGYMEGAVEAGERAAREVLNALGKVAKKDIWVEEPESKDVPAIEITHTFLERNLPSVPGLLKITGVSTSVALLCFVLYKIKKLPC", "assay": "Cerep off-target radioligand binding", "design": "species or system human", "conditions": "1 micromolar; antagonist radioligand; read-out: % Activity: Inhibition of Control Specific Binding", "procedure": "as §1, §2"}, "Lck kinase (h)": {"molecular_target": "T2, Lck kinase (h) (Homo sapiens, UniProt P06239)", "T2 construct": "Eurofins Cerep (contract assay)", "T2 sequence (P06239 whole entry)": "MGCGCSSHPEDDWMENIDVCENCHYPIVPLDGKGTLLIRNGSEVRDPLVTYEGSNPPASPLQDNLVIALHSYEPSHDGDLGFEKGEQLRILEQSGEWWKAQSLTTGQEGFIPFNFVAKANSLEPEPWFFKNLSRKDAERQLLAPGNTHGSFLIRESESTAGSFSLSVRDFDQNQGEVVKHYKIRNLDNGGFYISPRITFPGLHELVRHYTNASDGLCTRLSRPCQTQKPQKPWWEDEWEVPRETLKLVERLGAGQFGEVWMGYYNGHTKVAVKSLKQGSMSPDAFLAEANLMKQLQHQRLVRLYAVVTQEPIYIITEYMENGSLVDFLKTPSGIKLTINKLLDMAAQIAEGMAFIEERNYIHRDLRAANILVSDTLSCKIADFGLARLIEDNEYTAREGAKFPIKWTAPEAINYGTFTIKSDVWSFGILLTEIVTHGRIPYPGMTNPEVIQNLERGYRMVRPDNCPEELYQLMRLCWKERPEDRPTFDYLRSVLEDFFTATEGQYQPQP", "assay": "Cerep off-target enzyme inhibition", "assay_type": "biochemical", "conditions": "1 micromolar; Enzymatic; read-out: % Activity: Inhibition of Control Specific Binding", "procedure": "as §1, §2"}, "PDE4D2 (h)": {"molecular_target": "T3, PDE4D2 (h) (Homo sapiens, UniProt Q08499)", "T3 construct": "Eurofins Cerep (contract assay)", "assay": "Cerep off-target enzyme inhibition", "assay_type": "biochemical", "conditions": "1 micromolar; Enzymatic; read-out: % Activity: Inhibition of Control Specific Binding", "procedure": "as §1, §2"}, "COX2(h)": {"molecular_target": "T4, COX2(h) (Homo sapiens, UniProt P35354)", "T4 construct": "Eurofins Cerep (contract assay)", "T4 sequence (P35354 18-604)": "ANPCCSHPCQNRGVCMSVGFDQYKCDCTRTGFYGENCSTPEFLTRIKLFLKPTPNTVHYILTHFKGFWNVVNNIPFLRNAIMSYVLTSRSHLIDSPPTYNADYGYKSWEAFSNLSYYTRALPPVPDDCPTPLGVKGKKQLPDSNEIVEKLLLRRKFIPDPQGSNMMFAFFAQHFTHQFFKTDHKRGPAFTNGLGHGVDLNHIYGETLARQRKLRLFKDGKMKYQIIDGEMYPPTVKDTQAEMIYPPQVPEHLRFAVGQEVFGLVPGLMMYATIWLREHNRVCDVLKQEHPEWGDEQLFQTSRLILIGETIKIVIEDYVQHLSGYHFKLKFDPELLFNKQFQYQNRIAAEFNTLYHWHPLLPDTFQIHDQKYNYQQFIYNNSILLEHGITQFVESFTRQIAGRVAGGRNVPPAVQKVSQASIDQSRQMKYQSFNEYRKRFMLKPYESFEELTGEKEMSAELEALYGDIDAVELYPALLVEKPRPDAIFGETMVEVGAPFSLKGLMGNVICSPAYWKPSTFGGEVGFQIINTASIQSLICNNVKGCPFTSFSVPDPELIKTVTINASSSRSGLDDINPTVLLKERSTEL", "assay": "Cerep off-target enzyme inhibition", "assay_type": "biochemical", "conditions": "1 micromolar; Enzymatic; read-out: % Activity: Inhibition of Control Specific Binding", "procedure": "as §1, §2"}, "PDE3A (h)": {"molecular_target": "T5, PDE3A (h) (Homo sapiens, UniProt Q14432)", "T5 construct": "Eurofins Cerep (contract assay)", "assay": "Cerep off-target enzyme inhibition", "assay_type": "biochemical", "conditions": "1 micromolar; Enzymatic; read-out: % Activity: Inhibition of Control Specific Binding", "procedure": "as §1, §2"}, "COX1(h)": {"molecular_target": "T6, COX1(h) (Homo sapiens, UniProt P23219)", "T6 construct": "Eurofins Cerep (contract assay)", "T6 sequence (P23219 24-599)": "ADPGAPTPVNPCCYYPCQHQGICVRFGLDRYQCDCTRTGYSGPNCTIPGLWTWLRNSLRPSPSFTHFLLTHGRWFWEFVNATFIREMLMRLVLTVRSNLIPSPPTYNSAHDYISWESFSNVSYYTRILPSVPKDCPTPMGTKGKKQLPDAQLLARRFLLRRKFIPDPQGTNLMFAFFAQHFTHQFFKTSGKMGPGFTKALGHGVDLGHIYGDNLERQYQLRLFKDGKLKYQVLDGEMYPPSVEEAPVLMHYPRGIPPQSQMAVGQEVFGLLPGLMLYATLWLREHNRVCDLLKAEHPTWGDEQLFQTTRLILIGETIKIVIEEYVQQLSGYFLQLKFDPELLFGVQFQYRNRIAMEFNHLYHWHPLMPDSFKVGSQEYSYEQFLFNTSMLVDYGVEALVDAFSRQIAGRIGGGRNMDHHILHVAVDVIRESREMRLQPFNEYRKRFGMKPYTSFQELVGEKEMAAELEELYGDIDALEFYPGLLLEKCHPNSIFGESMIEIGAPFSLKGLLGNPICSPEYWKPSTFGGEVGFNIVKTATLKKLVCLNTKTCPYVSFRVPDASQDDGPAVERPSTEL", "assay": "Cerep off-target enzyme inhibition", "assay_type": "biochemical", "conditions": "1 micromolar; Enzymatic; read-out: % Activity: Inhibition of Control Specific Binding", "procedure": "as §1, §2"}, "acetylcholinesterase (h)": {"molecular_target": "T7, acetylcholinesterase (h) (Homo sapiens, UniProt P22303)", "T7 construct": "Eurofins Cerep (contract assay)", "assay": "Cerep off-target enzyme inhibition", "assay_type": "biochemical", "conditions": "1 micromolar; Enzymatic; read-out: % Activity: Inhibition of Control Specific Binding", "procedure": "as §1, §2"}, "5-HT1B (h)": {"molecular_target": "T8, 5-HT1B (h) (Homo sapiens, UniProt P28222)", "T8 construct": "Eurofins Cerep (contract assay)", "T8 sequence (P28222 whole entry)": "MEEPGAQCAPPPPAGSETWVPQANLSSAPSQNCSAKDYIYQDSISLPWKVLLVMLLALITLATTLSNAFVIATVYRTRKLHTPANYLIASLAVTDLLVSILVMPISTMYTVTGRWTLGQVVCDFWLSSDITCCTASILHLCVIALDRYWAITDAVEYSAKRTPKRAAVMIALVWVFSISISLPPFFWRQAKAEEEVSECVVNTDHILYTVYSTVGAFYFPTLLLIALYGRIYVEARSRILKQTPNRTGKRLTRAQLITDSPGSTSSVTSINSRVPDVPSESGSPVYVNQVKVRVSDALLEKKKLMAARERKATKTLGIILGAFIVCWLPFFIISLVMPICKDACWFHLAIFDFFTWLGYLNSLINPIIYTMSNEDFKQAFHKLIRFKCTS", "assay": "Cerep off-target radioligand binding", "conditions": "1 micromolar; antagonist radioligand; read-out: % Activity: Inhibition of Control Specific Binding", "procedure": "as §1, §2"}, "hSSTR-4": {"molecular_target": "T9, hSSTR-4 (Homo sapiens, UniProt P31391)", "T9 construct": "host or cells: Chem-1 (Rat ChemiSCREEN) cells, membrane preparation", "T9 sequence (P31391 whole entry)": "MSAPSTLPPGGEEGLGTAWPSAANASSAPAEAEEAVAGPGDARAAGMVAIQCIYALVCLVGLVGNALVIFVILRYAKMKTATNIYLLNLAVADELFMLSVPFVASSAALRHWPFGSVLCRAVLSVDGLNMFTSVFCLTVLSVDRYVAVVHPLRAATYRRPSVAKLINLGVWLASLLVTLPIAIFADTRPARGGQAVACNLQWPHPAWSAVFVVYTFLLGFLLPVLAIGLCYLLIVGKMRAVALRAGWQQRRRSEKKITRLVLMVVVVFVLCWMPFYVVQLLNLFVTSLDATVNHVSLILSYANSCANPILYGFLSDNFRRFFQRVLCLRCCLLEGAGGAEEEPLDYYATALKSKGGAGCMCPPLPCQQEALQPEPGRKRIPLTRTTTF", "assay": "Radioligand binding, displacement of 125I-Tyr11-SRIF-14", "in_short": "(§3)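 Assays ran at 25 °C in 25 mM HEPES pH 7.4 with 5 mM MgCl2, 1 mM CaCl2, 0.1% BSA and 1% DMSO. Filter-bound radioactivity gave IC50 by nonlinear least-squares regression.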"}, "SSTR5": {"molecular_target": "SSTR5 (Homo sapiens, UniProt P35346)", "sequence (P35346 whole entry)": "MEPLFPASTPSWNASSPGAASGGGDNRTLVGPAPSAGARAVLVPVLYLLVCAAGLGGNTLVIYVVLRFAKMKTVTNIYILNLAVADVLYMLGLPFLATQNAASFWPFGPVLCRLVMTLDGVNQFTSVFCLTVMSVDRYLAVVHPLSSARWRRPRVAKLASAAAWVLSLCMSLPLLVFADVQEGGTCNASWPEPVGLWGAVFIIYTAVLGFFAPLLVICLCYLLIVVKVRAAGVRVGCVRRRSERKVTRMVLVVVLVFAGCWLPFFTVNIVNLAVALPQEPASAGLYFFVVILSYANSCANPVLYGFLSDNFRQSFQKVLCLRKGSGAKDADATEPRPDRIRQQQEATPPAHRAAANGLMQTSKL", "assay": "Radioligand binding, displacement of 125I-Tyr11-SRIF-14", "design": "host or cells: Chem-1 (Rat ChemiSCREEN) cells, membrane preparation", "in_short": "as §3"}, "SSTR1": {"molecular_target": "SSTR1 (Homo sapiens, UniProt P30872)", "sequence (P30872 whole entry)": "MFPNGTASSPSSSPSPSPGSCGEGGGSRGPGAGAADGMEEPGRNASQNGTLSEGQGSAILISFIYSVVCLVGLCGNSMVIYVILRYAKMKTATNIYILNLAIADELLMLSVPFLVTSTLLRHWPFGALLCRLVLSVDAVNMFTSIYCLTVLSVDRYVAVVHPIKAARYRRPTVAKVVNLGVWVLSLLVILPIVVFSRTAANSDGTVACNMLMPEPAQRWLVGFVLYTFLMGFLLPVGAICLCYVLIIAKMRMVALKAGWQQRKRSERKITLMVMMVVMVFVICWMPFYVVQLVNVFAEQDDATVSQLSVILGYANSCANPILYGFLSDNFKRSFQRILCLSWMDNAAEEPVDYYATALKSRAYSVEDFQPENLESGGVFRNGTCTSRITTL", "assay": "Radioligand binding, displacement of 125I-Tyr11-SRIF-14", "design": "host or cells: CHO (Chinese Hamster Ovary) cells, membrane preparation", "in_short": "as §3"}, "SSTR2": {"molecular_target": "SSTR2 (Homo sapiens, UniProt P30874)", "sequence (P30874 whole entry)": "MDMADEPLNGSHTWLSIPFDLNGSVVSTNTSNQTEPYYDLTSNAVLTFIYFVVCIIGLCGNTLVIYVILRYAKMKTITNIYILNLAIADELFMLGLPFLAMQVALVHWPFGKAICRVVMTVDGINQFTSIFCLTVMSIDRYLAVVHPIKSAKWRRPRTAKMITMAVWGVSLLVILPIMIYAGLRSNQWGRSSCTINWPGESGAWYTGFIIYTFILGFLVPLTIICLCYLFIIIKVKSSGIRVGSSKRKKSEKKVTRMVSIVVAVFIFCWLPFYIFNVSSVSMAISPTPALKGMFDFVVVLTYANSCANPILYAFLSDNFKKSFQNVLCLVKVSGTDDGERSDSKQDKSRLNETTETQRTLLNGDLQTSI", "assay": "Radioligand binding, displacement of 125I-Tyr11-SRIF-14", "design": "host or cells: CHO (Chinese Hamster Ovary) cells, membrane preparation", "in_short": "as §3"}, "SSTR3": {"molecular_target": "SSTR3 (Homo sapiens, UniProt P32745)", "sequence (P32745 whole entry)": "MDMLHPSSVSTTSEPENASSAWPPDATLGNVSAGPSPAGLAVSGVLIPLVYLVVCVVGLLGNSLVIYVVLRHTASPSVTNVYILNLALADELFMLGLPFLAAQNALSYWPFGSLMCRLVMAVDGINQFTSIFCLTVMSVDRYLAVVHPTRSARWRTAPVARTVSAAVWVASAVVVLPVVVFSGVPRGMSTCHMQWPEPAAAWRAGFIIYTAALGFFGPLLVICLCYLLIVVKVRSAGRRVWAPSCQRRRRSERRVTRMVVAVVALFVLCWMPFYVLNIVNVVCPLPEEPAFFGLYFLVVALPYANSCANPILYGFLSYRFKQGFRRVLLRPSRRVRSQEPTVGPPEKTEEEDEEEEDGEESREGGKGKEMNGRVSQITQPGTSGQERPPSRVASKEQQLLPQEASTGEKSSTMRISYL", "assay": "Radioligand binding, displacement of 125I-Tyr11-SRIF-14", "design": "host or cells: CHO (Chinese Hamster Ovary) cells, membrane preparation", "in_short": "as §3"}}, "note": "*1 amine or outer side, *2 acyl side, *3 side chain or, on linkers, in order; H or OH if unused. Where a SMILES comes first, the peptide text is derived from it. Bridges are numbered along the chain shown (N, C = ends). [ ]: non-standard residue; d: D form. The star is where a group is joined. DOTA = O=C(O)CN1CCN(CC(=O)O)CCN(CC(=O)*)CCN(CC(=O)O)CC1; N(2-mercaptoethyl)Gly = O=C(CN(CCS[*:3])[*:1])[*:2]"}
{"smiles": "C[C@@H](O)[C@@H]1NC(=O)[C@H](CCCCN)NC(=O)[C@@H](Cc2c[nH]c3ccccc23)NC(=O)[C@H](Cc2ccccc2)NC(=O)[C@@H](NC(=O)[C@H](CCCNC(=N)N)NC(=O)[C@@H](Cc2ccccc2)NC(=O)CN2CCN(CC(=O)O)CCN(CC(=O)O)CCN(CC(=O)O)CC2)CSSCCN(CC(N)=O)C(=O)[C@H](Cc2ccccc2)NC1=O", "note": "[SEQ ID NO: 3, DOTA-D-Phe^1-Arg^2-Cys^3-Phe^4-D-Trp^5-Lys^6-Thr^7-Phe^8-NTEG^9-NH2 cyclo 3-9] ({DOTA}-[dF]RCF[dW]KTF[N(2-mercaptoethyl)Gly]-NH2; disulfide 3-9)", "values": [{"measurement": "off-target interactions with opiate receptors", "setting": "[1]", "result": "not indicated"}, {"measurement": "off-target interactions, safety pharmacology panel (in words)", "setting": "[1]", "result": "no interaction with human cloned GPCRs of clinical significance"}, {"measurement": "% Activity: Inhibition of Control Specific Binding", "setting": "KV channel", "result": "−5", "unit": "%"}, {"measurement": "% Activity: Inhibition of Control Specific Binding", "setting": "AR(h)", "result": "−9", "unit": "%"}, {"measurement": "% Activity: Inhibition of Control Specific Binding", "setting": "[2]", "result": "−10", "unit": "%"}, {"measurement": "% Activity: Inhibition of Control Specific Binding", "setting": "Na+ channel (site 2)", "result": 3, "unit": "%"}, {"measurement": "% Activity: Inhibition of Control Specific Binding", "setting": "BZD (central)", "result": "−7", "unit": "%"}, {"measurement": "% Activity: Inhibition of Control Specific Binding", "setting": "NMDA", "result": 10, "unit": "%"}, {"measurement": "inhibition at 1 µM", "setting": "MAO-A", "result": 3, "unit": "%"}, {"measurement": "inhibition at 1 µM", "setting": "Lck kinase (h)", "result": -4, "unit": "%"}, {"measurement": "inhibition at 1 µM", "setting": "PDE4D2 (h)", "result": -2, "unit": "%"}, {"measurement": "inhibition at 1 µM", "setting": "COX2(h)", "result": 18, "unit": "%"}, {"measurement": "inhibition at 1 µM", "setting": "PDE3A (h)", "result": 0, "unit": "%"}, {"measurement": "inhibition at 1 µM", "setting": "COX1(h)", "result": 9, "unit": "%"}, {"measurement": "inhibition at 1 µM", "setting": "acetylcholinesterase (h)", "result": 6, "unit": "%"}, {"measurement": "inhibition at 1 µM", "setting": "5-HT1B (h)", "result": 1, "unit": "%"}, {"measurement": "IC50", "setting": "hSSTR-4", "result": "> 1000", "unit": "nM"}, {"measurement": "Ki", "setting": "hSSTR-4", "result": "> 1000", "unit": "nM"}, {"measurement": "Hill coefficient (nH)", "setting": "hSSTR-4; hSSTR-4", "result": 1.14}, {"measurement": "IC50", "setting": "SSTR5", "result": "> 1000", "unit": "nM"}, {"measurement": "Ki", "setting": "SSTR5", "result": 660, "unit": "nM"}, {"measurement": "Hill coefficient (nH)", "setting": "SSTR5; hSSTR-5", "result": 1.57}, {"measurement": "IC50", "setting": "SSTR1", "result": 310, "unit": "nM"}, {"measurement": "Ki", "setting": "SSTR1", "result": 260, "unit": "nM"}, {"measurement": "Hill coefficient (nH)", "setting": "SSTR1; hSSTR-1", "result": 0.86}, {"measurement": "IC50", "setting": "SSTR2", "result": 590, "unit": "nM"}, {"measurement": "Ki", "setting": "SSTR2", "result": 310, "unit": "nM"}, {"measurement": "Hill coefficient (nH)", "setting": "SSTR2; hSSTR-2", "result": 1.62}, {"measurement": "IC50", "setting": "SSTR3", "result": 0.83, "unit": "nM"}, {"measurement": "Ki", "setting": "SSTR3", "result": 0.28, "unit": "nM"}, {"measurement": "affinity and selectivity to SSTR3 (in words)", "setting": "SSTR3; binding data, listed as DOTA conjugate of SEQ ID NO: 1", "result": "did not interfere with the binding affinity and selectivity of SEQ ID NO: 1"}, {"measurement": "Hill coefficient (nH)", "setting": "SSTR3; hSSTR-3", "result": 1.15}]}
